According to ChEMBL document CHEMBL4507268 (2021):

Tests used:
[1] = target: Peripheral plasma membrane protein CASK (Homo sapiens) (UniProt O14936); conditions: Compound concentration 1000.0 nM
[2] = target: Fibroblast growth factor receptor 2 (Homo sapiens) (UniProt P21802); conditions: Compound concentration 1000.0 nM
[3] = target: Ephrin type-A receptor 6 (Homo sapiens) (UniProt Q9UF33); conditions: Compound concentration 1000.0 nM
[4] = target: Death-associated protein kinase 3 (Homo sapiens) (UniProt O43293); conditions: Compound concentration 1000.0 nM
[5] = target: Mitogen-activated protein kinase kinase kinase 20 (Homo sapiens) (UniProt Q9NYL2); conditions: Compound concentration 1000.0 nM
[6] = target: Hepatocyte growth factor receptor (Homo sapiens) (UniProt P08581); conditions: Compound concentration 1000.0 nM
[7] = target: 5'-AMP-activated protein kinase catalytic subunit alpha-1 (Homo sapiens) (UniProt Q13131); conditions: Compound concentration 1000.0 nM
[8] = target: Tyrosine-protein kinase Yes (Homo sapiens) (UniProt P07947); conditions: Compound concentration 1000.0 nM
[9] = target: T1, Serine/threonine-protein kinase Nek11 (Homo sapiens) (UniProt Q8NG66); conditions: Compound concentration 1000.0 nM
T1 sequence (whole entry): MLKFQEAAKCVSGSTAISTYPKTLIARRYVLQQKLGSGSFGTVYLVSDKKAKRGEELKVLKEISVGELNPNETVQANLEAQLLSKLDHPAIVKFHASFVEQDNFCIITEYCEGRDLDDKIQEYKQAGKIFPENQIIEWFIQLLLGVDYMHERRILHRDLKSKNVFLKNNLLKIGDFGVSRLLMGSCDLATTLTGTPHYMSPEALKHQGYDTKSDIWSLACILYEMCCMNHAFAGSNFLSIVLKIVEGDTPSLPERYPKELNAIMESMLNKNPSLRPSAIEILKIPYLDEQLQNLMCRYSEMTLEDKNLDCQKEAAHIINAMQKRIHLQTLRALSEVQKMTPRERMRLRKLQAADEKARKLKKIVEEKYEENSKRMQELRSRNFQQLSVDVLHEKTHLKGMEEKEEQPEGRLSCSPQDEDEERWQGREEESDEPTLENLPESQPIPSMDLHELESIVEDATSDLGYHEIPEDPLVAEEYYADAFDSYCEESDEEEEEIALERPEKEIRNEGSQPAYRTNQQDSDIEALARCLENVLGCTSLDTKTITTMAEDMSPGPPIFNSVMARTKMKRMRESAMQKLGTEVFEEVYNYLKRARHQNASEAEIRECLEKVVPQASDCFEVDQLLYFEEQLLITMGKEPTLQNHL

[10] = target: Serine/threonine-protein kinase NIM1 (Homo sapiens) (UniProt Q8IY84); conditions: Compound concentration 1000.0 nM
[11] = target: T2, Serine/threonine-protein kinase ULK3 (Homo sapiens) (UniProt Q6PHR2); conditions: Compound concentration 1000.0 nM
T2 sequence (whole entry): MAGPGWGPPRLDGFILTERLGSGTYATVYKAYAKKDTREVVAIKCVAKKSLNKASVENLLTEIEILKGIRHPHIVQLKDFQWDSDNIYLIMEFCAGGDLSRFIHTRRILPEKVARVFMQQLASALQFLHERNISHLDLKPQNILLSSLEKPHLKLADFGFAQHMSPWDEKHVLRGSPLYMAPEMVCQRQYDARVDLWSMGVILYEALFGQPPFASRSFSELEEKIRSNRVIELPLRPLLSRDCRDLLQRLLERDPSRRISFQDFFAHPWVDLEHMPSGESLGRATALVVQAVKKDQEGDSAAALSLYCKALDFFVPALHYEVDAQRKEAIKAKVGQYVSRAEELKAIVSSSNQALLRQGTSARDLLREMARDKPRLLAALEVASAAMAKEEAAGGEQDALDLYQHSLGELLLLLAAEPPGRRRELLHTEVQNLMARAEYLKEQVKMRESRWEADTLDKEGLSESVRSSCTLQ

[12] = target: Serine/threonine-protein kinase 32B (Homo sapiens) (UniProt Q9NY57); conditions: Compound concentration 1000.0 nM
[13] = target: Serine/threonine-protein kinase B-raf (Homo sapiens) (UniProt P15056); conditions: Compound concentration 1000.0 nM
[14] = target: 5-hydroxytryptamine receptor 1E (Homo sapiens) (UniProt P28566); conditions: Compound concentration 10.0 uM
[15] = target: Cyclin-dependent kinase 4 (Homo sapiens) (UniProt P11802); conditions: Compound concentration 1000.0 nM
[16] = target: Mitogen-activated protein kinase kinase kinase kinase 2 (Homo sapiens) (UniProt Q12851); conditions: Compound concentration 1000.0 nM
[17] = target: Serine/threonine-protein kinase VRK2 (Homo sapiens) (UniProt Q86Y07); conditions: Compound concentration 1000.0 nM
[18] = target: Serine/threonine-protein kinase OSR1 (Homo sapiens) (UniProt O95747); conditions: Compound concentration 1000.0 nM
[19] = test system: Mast/stem cell growth factor receptor Kit (Homo sapiens), P10721 [V559D]; conditions: Compound concentration 1000.0 nM
[20] = test system: Epidermal growth factor receptor (Homo sapiens), P00533 [G719C]; conditions: Compound concentration 1000.0 nM
[21] = test system: Epidermal growth factor receptor (Homo sapiens), P00533 [L861Q]; conditions: Compound concentration 1000.0 nM
[22] = target: Serine/threonine-protein kinase LATS1 (Homo sapiens) (UniProt O95835); conditions: Compound concentration 1000.0 nM
[23] = target: T3, Testis-specific serine/threonine-protein kinase 1 (Homo sapiens) (UniProt Q9BXA7); conditions: Compound concentration 1000.0 nM
T3 sequence (whole entry): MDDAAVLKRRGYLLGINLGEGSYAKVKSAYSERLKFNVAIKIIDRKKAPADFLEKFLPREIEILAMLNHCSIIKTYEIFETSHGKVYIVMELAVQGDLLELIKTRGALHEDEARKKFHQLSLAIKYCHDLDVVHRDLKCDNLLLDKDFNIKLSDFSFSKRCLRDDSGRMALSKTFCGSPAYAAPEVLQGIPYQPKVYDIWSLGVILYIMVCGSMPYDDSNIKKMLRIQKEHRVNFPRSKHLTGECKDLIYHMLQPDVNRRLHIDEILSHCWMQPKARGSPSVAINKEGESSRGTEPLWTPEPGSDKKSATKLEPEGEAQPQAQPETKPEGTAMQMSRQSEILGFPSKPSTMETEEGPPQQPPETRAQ

[24] = target: Myosin light chain kinase family member 4 (Homo sapiens) (UniProt Q86YV6); conditions: Compound concentration 1000.0 nM
[25] = target: Activin receptor type-2B (Homo sapiens) (UniProt Q13705); conditions: Compound concentration 1000.0 nM
Chain of Activin receptor type-2B (Homo sapiens) (Q13705 whole entry): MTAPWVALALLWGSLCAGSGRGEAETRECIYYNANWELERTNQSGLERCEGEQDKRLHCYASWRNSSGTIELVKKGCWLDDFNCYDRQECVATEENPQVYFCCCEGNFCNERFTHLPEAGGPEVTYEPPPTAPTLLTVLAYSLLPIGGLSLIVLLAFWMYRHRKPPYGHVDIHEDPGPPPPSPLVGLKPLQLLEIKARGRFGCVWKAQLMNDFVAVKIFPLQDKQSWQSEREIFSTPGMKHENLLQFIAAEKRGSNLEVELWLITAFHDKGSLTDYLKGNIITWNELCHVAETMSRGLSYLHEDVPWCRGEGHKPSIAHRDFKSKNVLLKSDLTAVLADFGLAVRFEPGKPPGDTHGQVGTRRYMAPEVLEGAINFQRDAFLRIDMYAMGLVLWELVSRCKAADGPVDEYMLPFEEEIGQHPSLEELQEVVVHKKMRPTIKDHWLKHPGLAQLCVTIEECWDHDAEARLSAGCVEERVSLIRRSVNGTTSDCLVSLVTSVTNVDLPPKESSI

Chain of Peripheral plasma membrane protein CASK (Homo sapiens) (O14936 whole entry): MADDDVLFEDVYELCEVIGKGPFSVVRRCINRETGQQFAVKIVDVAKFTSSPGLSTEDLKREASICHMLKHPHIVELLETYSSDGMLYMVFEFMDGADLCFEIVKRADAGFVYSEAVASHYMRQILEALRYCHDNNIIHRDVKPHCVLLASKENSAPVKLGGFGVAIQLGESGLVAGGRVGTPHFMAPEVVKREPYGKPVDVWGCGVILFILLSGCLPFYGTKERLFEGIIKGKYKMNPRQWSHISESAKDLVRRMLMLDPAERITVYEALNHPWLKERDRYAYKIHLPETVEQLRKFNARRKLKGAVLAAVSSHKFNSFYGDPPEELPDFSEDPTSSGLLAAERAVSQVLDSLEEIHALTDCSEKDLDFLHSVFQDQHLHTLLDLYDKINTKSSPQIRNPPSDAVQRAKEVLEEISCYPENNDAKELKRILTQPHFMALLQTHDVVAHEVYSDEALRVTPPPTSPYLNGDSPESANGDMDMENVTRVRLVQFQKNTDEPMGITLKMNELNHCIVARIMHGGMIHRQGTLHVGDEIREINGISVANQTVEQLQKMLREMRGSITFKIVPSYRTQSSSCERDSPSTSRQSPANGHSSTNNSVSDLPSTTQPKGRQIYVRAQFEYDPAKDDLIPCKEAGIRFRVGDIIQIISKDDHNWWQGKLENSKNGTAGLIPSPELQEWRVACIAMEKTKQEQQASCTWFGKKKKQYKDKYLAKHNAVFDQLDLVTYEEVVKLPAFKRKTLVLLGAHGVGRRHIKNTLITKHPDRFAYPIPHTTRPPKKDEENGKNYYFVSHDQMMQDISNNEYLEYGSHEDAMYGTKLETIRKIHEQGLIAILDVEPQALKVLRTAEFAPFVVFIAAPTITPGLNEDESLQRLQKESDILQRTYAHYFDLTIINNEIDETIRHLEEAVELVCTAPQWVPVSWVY
Chain of Mitogen-activated protein kinase kinase kinase 20 (Homo sapiens) (Q9NYL2 2-800 limits assumed): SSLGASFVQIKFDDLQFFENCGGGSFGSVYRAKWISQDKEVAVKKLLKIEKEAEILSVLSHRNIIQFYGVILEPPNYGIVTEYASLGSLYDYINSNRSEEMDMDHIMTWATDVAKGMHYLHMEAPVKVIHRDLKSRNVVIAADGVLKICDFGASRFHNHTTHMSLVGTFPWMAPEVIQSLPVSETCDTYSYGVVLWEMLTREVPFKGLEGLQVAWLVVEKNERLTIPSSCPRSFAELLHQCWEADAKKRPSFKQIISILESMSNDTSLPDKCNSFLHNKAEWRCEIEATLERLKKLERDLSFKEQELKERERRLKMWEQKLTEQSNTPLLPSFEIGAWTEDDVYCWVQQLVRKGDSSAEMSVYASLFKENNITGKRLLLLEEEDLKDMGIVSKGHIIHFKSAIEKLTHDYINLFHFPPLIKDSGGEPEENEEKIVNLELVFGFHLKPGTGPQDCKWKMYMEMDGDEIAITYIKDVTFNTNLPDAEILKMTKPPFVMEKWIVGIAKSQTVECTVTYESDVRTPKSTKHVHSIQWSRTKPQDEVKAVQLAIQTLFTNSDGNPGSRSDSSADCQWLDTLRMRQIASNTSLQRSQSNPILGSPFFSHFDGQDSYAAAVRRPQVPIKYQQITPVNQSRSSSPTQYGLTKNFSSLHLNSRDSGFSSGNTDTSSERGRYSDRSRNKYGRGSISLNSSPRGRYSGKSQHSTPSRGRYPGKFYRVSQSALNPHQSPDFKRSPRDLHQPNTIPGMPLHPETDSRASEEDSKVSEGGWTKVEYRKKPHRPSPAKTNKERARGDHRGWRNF
Chain of Cyclin-dependent kinase 4 (Homo sapiens) (P11802 whole entry): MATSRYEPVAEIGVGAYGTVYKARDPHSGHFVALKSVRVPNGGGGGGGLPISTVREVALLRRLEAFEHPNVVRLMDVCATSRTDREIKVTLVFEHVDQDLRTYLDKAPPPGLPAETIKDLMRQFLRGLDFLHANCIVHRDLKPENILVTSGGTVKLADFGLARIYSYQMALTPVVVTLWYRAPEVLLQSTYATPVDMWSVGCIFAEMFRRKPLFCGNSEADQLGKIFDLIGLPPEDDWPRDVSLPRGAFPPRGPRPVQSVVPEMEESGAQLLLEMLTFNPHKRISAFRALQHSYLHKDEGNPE
Chain of Mitogen-activated protein kinase kinase kinase kinase 2 (Homo sapiens) (Q12851 whole entry): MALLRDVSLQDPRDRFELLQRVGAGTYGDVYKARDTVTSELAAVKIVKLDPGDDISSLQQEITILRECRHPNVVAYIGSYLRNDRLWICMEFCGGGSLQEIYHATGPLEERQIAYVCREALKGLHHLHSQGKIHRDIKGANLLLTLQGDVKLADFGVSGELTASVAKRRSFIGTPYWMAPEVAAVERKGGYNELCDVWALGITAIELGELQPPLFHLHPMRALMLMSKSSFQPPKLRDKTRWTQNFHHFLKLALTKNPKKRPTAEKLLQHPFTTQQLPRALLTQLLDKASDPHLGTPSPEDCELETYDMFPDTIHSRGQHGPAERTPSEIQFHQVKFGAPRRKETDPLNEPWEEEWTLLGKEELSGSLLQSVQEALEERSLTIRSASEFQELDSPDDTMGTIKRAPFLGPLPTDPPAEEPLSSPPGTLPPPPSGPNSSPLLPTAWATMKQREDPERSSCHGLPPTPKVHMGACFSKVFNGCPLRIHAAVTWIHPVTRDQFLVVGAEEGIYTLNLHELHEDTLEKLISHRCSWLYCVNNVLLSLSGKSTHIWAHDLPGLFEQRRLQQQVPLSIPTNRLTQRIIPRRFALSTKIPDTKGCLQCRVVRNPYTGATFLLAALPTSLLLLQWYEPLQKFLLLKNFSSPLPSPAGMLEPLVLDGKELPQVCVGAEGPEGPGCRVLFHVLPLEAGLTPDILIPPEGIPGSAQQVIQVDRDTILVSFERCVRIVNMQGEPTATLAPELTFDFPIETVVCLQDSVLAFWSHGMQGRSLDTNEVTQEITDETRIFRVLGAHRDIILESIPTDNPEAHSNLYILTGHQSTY
Chain of Serine/threonine-protein kinase NIM1 (Homo sapiens) (Q8IY84 whole entry): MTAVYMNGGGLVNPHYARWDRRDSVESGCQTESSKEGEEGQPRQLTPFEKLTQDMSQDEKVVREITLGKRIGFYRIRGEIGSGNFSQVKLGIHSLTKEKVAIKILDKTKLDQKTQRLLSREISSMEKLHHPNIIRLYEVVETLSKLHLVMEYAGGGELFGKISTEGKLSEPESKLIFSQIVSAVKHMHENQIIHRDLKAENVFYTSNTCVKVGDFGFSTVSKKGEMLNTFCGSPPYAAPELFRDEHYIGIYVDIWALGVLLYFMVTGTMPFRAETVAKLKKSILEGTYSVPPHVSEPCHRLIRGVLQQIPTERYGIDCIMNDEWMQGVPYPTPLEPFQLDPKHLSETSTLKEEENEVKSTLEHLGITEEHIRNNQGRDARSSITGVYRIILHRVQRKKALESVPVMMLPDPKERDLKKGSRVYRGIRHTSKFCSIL
Chain of 5'-AMP-activated protein kinase catalytic subunit alpha-1 (Homo sapiens) (Q13131 whole entry, looked up): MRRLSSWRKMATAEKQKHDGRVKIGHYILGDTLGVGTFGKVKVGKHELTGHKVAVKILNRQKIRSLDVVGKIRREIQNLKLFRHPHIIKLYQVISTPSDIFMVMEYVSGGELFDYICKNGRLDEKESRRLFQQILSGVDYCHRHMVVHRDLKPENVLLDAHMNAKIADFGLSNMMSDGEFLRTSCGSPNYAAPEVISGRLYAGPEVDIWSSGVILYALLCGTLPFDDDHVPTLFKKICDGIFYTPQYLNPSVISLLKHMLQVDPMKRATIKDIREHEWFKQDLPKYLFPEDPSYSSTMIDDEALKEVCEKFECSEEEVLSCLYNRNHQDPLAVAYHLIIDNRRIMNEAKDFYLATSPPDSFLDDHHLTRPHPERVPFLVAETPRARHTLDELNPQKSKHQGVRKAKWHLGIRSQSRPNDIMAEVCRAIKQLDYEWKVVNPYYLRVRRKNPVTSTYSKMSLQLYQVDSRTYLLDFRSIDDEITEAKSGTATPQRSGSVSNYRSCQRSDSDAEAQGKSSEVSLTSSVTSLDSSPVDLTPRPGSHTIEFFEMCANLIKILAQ
Chain of Tyrosine-protein kinase Yes (Homo sapiens) (P07947 2-543 limits assumed): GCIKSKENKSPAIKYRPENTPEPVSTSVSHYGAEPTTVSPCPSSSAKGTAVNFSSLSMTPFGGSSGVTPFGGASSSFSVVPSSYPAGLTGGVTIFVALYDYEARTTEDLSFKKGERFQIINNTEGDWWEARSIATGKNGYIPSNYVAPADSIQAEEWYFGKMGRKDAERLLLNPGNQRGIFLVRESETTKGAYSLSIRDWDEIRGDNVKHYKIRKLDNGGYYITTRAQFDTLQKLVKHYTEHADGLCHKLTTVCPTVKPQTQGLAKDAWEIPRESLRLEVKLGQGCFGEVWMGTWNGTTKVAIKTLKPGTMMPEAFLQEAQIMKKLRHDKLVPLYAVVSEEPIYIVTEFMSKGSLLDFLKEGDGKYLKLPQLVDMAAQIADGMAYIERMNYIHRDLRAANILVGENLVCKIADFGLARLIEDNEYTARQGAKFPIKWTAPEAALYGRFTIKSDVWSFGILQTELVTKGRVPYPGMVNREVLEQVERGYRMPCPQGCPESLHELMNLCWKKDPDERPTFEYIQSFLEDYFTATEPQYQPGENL

Cc1nc(C2CCN(C(=O)c3ccc(OC(F)(F)F)cc3N)CC2)c2ncc(N3CCN(C)CC3)cc2n1 [BAY-693]
residual activity [1]: 87% | residual activity [2]: 100% | residual activity [3]: 95% | residual activity [4]: 100% | residual activity [5]: 95% | residual activity [6]: 94% | residual activity [7]: 98% | residual activity [8]: 100% | residual activity [9]: 100% | residual activity [10]: 89% | residual activity [11]: 46% | residual activity [12]: 90% | residual activity [13]: 100% | inhibition [14]: -9.94% | residual activity [15]: 99% | residual activity [16]: 80% | residual activity [17]: 100% | residual activity [18]: 49% | residual activity [19]: 93% | residual activity [20]: 100% | residual activity [21]: 100% | residual activity [22]: 78% | residual activity [23]: 100% | residual activity [24]: 100% | residual activity [25]: 100%

CN1CCN(c2cnc3c(C4CCN(C(=O)c5ccc(OC(F)(F)F)cc5N)CC4)ncnc3c2)CC1 [BAY-885]
residual activity [1]: 89% | residual activity [2]: 100% | residual activity [3]: 100% | residual activity [4]: 91% | residual activity [5]: 98% | residual activity [6]: 69% | residual activity [7]: 87% | residual activity [8]: 100% | residual activity [9]: 100% | residual activity [10]: 100% | residual activity [11]: 100% | residual activity [12]: 87% | residual activity [13]: 100% | inhibition [14]: 14.2% | residual activity [15]: 98% | residual activity [16]: 82% | residual activity [17]: 100% | residual activity [18]: 100% | residual activity [19]: 99% | residual activity [20]: 94% | residual activity [21]: 100% | residual activity [22]: 81% | residual activity [23]: 100% | residual activity [24]: 100% | residual activity [25]: 100%
